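Protocol summary: plate cells (96-well), add compound at 5 concentrations, incubate 48 h, interpolate endpoints linearly. GI50: concentration for 50% inhibition of growth.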 Calls of active or inactive are those of the source. No stated cut-off is given here; in the data, active = GI50 up to about 1.1 µM and inactive = higher.
Key:
Assay in all cases: NCI tumour cell line growth inhibition, 48 h
786-0 = test system: 786-0
A498 = test system: A498
A549 = test system: A549
ACHN = test system: ACHN
CAKI-1 = test system: CAKI-1
CCRF-CEM = test system: CCRF-CEM
COLO 205 = test system: COLO 205
DLD-1 = test system: DLD-1
DMS-114 = test system: DMS-114
DMS-273 = test system: DMS-273
EKVX = test system: EKVX
HCC 2998 = test system: HCC 2998
HCT-116 = test system: HCT-116
HCT-15 = test system: HCT-15
HOP-18 = test system: HOP-18
HOP-62 = test system: HOP-62
HT-29 = test system: HT-29
IGROV-1 = test system: IGROV-1
K562 = test system: K562
KM-20L2 = test system: KM-20L2
KM12 = test system: KM12
LXFL 529 = test system: LXFL 529
M14 = test system: M14
M19-MEL = test system: M19-MEL
MOLT-4 = test system: MOLT-4
Malme-3M = test system: Malme-3M
NCI-H226 = test system: NCI-H226
NCI-H23 = test system: NCI-H23
NCI-H460 = test system: NCI-H460
NCI-H522 = test system: NCI-H522
OVCAR-3 = test system: OVCAR-3
OVCAR-4 = test system: OVCAR-4
OVCAR-5 = test system: OVCAR-5
OVCAR-8 = test system: OVCAR-8
RPMI-8226 = test system: RPMI-8226
RXF 393 = test system: RXF 393
SF-268 = test system: SF-268
SF-295 = test system: SF-295
SF-539 = test system: SF-539
SK-MEL-2 = test system: SK-MEL-2
SK-MEL-5 = test system: SK-MEL-5
SK-OV-3 = test system: SK-OV-3
SN12C = test system: SN12C
SNB-19 = test system: SNB-19
SNB-75 = test system: SNB-75
SNB-78 = test system: SNB-78
SW-620 = test system: SW-620
TK-10 = test system: TK-10
U-251 = test system: U-251
UACC-257 = test system: UACC-257
UACC-62 = test system: UACC-62
UO-31 = test system: UO-31
XF498 = test system: XF498
HL-60 = test system: HL-60
LOX IMVI = test system: LOX IMVI
SK-MEL-28 = test system: SK-MEL-28
SR = test system: SR

In the case of `Cn1c(=O)nc2n(-c3ccc(F)cc3)c3ccccc3nc-2c1=O`, the GI50 (786-0) is reported as 28.2 µM (inactive), the GI50 (A498) is reported as 32.6 µM (inactive) and the GI50 (A549) is reported as 18.3 µM (inactive). For the same compound, the GI50 (ACHN) was 13.9 µM (inactive), the GI50 (CAKI-1) was 28.8 µM (inactive) and the GI50 (CCRF-CEM) was 26.6 µM (inactive). The GI50 (COLO 205) was 6.84 µM (inactive), the GI50 (DLD-1) was 19.5 µM (inactive) and the GI50 (DMS-114) was 12.8 µM (inactive). For the same compound, the GI50 (DMS-273) was 17 µM (inactive), the GI50 (EKVX) was 16.4 µM (inactive) and the GI50 (HCC 2998) was 19.1 µM (inactive). The GI50 (HCT-116) was 17.5 µM (inactive), the GI50 (HCT-15) was 16.4 µM and the GI50 (HOP-18) was 19.4 µM (inactive). The GI50 (HOP-62) was 46.7 µM (inactive), the GI50 (HT-29) was 14.1 µM (inactive) and the GI50 (IGROV-1) was 24 µM (inactive). The GI50 (K562) was 19.9 µM (inactive), the GI50 (KM-20L2) was 19.8 µM (inactive) and the GI50 (KM12) was 24.7 µM (inactive). The GI50 (LXFL 529) was 22.8 µM (inactive), the GI50 (M14) was 13.9 µM (inactive) and the GI50 (M19-MEL) was 2.89 µM (inactive). The GI50 (MOLT-4) was 25.7 µM (inactive), the GI50 (Malme-3M) was 10.5 µM (inactive) and the GI50 (NCI-H226) was 36.7 µM (inactive). The GI50 (NCI-H23) was 20 µM (inactive), the GI50 (NCI-H460) was 18.2 µM (inactive) and the GI50 (NCI-H522) was 16.1 µM (inactive). The GI50 (OVCAR-3) was 3.13 µM (inactive), the GI50 (OVCAR-4) was 14.4 µM (inactive) and the GI50 (OVCAR-5) was 24.3 µM (inactive). For the same compound, the GI50 (OVCAR-8) was 20.5 µM (inactive), the GI50 (RPMI-8226) was 25.2 µM (inactive) and the GI50 (RXF 393) was 23.8 µM (inactive). The GI50 (SF-268) was 28.2 µM (inactive), the GI50 (SF-295) was 18.7 µM (inactive) and the GI50 (SF-539) was 21.3 µM (inactive). For the same compound, the GI50 (SK-MEL-2) was 19 µM (inactive), the GI50 (SK-MEL-5) was 12.6 µM (inactive) and the GI50 (SK-OV-3) was > 100 µM (inactive). The GI50 (SN12C) was 20.5 µM (inactive), the GI50 (SNB-19) was 13.9 µM (inactive) and the GI50 (SNB-75) was 31 µM (inactive). For the same compound, the GI50 (SNB-78) was 20 µM (inactive), the GI50 (SW-620) was 18.8 µM (inactive) and the GI50 (TK-10) was 26.5 µM (inactive). The GI50 (U-251) was 21.5 µM (inactive), the GI50 (UACC-257) was 14.4 µM (inactive) and the GI50 (UACC-62) was 12.2 µM (inactive). For the same compound, the GI50 (UO-31) was 38.4 µM (inactive) and the GI50 (XF498) was 19.3 µM (inactive).

`[N-]=[N+]=CC(=O)C1(C(=O)C=[N+]=[N-])CC1` was tested, and the GI50 (786-0) was > 100 µM (inactive), the GI50 (A498) was > 100 µM (inactive) and the GI50 (A549) was > 100 µM (inactive). For the same compound, the GI50 (ACHN) was > 100 µM (inactive), the GI50 (CCRF-CEM) was > 100 µM (inactive) and the GI50 (COLO 205) was > 100 µM (inactive). For the same compound, the GI50 (DMS-114) was > 100 µM (inactive), the GI50 (DMS-273) was > 100 µM (inactive) and the GI50 (EKVX) was > 100 µM (inactive). For the same compound, the GI50 (HCC 2998) was > 100 µM (inactive), the GI50 (HCT-116) was > 100 µM (inactive) and the GI50 (HCT-15) was over 100 µM. For the same compound, the GI50 (HL-60) was > 100 µM (inactive), the GI50 (HOP-18) was > 100 µM (inactive) and the GI50 (HOP-62) was > 100 µM (inactive). For the same compound, the GI50 (HT-29) was > 100 µM (inactive), the GI50 (IGROV-1) was > 100 µM (inactive) and the GI50 (K562) was > 100 µM (inactive). The GI50 (KM-20L2) was > 100 µM (inactive), the GI50 (KM12) was > 100 µM (inactive) and the GI50 (LOX IMVI) was > 100 µM (inactive). For the same compound, the GI50 (LXFL 529) was > 100 µM (inactive), the GI50 (M14) was > 100 µM (inactive) and the GI50 (M19-MEL) was > 100 µM (inactive). For the same compound, the GI50 (MOLT-4) was > 100 µM (inactive), the GI50 (Malme-3M) was > 100 µM (inactive) and the GI50 (NCI-H226) was > 100 µM (inactive). The GI50 (NCI-H23) was > 100 µM (inactive), the GI50 (NCI-H460) was > 100 µM (inactive) and the GI50 (NCI-H522) was > 100 µM (inactive). For the same compound, the GI50 (OVCAR-3) was > 100 µM (inactive), the GI50 (OVCAR-4) was > 100 µM (inactive) and the GI50 (OVCAR-5) was > 100 µM (inactive). For the same compound, the GI50 (OVCAR-8) was > 100 µM (inactive), the GI50 (RXF 393) was > 100 µM (inactive) and the GI50 (SF-268) was > 100 µM (inactive). For the same compound, the GI50 (SF-295) was > 100 µM (inactive), the GI50 (SF-539) was > 100 µM (inactive) and the GI50 (SK-MEL-28) was > 100 µM (inactive). The GI50 (SK-MEL-2) was > 100 µM (inactive), the GI50 (SK-MEL-5) was > 100 µM (inactive) and the GI50 (SK-OV-3) was > 100 µM (inactive). The GI50 (SN12C) was > 100 µM (inactive), the GI50 (SNB-19) was > 100 µM (inactive) and the GI50 (SNB-75) was > 100 µM (inactive). For the same compound, the GI50 (SNB-78) was > 100 µM (inactive), the GI50 (SR) was > 100 µM (inactive) and the GI50 (SW-620) was > 100 µM (inactive). The GI50 (TK-10) was > 100 µM (inactive), the GI50 (U-251) was > 100 µM (inactive) and the GI50 (UACC-257) was > 100 µM (inactive). The GI50 (UO-31) was > 100 µM (inactive) and the GI50 (XF498) was > 100 µM (inactive).
